Measurements: patent US11090319B2, “Therapeutic uses of pharmaceutical compositions comprising cyclic boronic acid ester derivatives” (Melinta Subsidiary Corp., priority 2010, dated 2021)

Key:
Assay in all cases: Ceftazidime MIC with fixed concentration of BLI
Assay type in all cases: cell-based
[1] = tested on: CF1000 Citrobacter freundii Hyper AmpC expression; details: derivative at 10 μg/mL
Method: (§1) Next, ceftazidime potentiation activity of several cyclic boronic acid ester derivatives was tested using a larger panel of strains expressing β-lactamase hydrolyzing enzymes. Ceftazidime MICs were determined alone and in the presence of fixed concentrations of various cyclic boronic acid ester derivatives.

[2] = tested on: AB1054 Acinetobacter baumannii OXA-23; details: derivative at 10 μg/mL; AB1054 OXA-23
Method: as §1

[3] = tested on: EC1011 Escherichia coli TEM-26; details: derivative at 10 μg/mL; EC1011 TEM-26
Method: as §1

[4] = tested on: ec303 Escherichia coli TEM-12; details: derivative at 10 μg/mL; ec303 TEM-12
Method: as §1

[5] = tested on: KP1009 Klebsiella pneumoniae CTX-M-15; details: derivative at 10 μg/mL; KP1009 CTX-M-15
Method: as §1

[6] = tested on: KP1005 Klebsiella pneumoniae CTX-M-14; details: derivative at 10 μg/mL; KP1005 CTX-M-14
Method: as §1

[7] = tested on: ec302 Escherichia coli TEM-10; details: derivative at 10 μg/mL; ec302 TEM-10
Method: as §1

[8] = tested on: EC1006 Escherichia coli FOX-5; details: derivative at 10 μg/mL; EC1006 FOX-5
Method: as §1

[9] = tested on: EC1010 Escherichia coli CMY-6; details: derivative at 10 μg/mL; EC1010 CMY-6
Method: as §1

[10] = tested on: ec310 Escherichia coli ACT-1; details: derivative at 10 μg/mL; ec310 ACT-1
Method: as §1

[11] = tested on: EC1012 Escherichia coli TEM-12; details: derivative at 10 μg/mL; EC1012 TEM-12
Method: as §1

[12] = tested on: ec300 Escherichia coli TEM-3; details: derivative at 10 μg/mL; ec300 TEM-3
Method: as §1

[13] = tested on: KP1007 Klebsiella pneumoniae OXA-10; details: derivative at 10 μg/mL; KP1007 OXA-10
Method: as §1

[14] = tested on: KP1004 Klebsiella pneumoniae KPC-2; details: derivative at 10 μg/mL; KP1004 KPC-2
Method: as §1

[15] = tested on: KP1012 Klebsiella pneumoniae SHV-18; details: derivative at 10 μg/mL; KP1012 SHV-18
Method: as §1

[16] = tested on: ECL1002 Enterobacter cloacae Hyper AmpC expression; details: derivative at 10 μg/mL
Method: as §1

[17] = tested on: AB1057 Acinetobacter baumannii OXA-58; details: derivative at 10 μg/mL; AB1057 OXA-58
Method: as §1

[18] = tested on: EC1014 Escherichia coli DHA-1; details: derivative at 10 μg/mL; EC1014 DHA-1
Method: as §1

[19] = tested on: EC1004 Escherichia coli CMY-2; details: derivative at 10 μg/mL; EC1004 CMY-2
Method: as §1

[20] = tested on: pa1063 Pseudomonas aeruginosa GES-1; details: derivative at 10 μg/mL; pa1063 GES-1
Method: as §1

[21] = tested on: KP1010 Klebsiella pneumoniae SHV-12; details: derivative at 10 μg/mL; KP1010 SHV-12
Method: as §1

[22] = tested on: EC1009 Escherichia coli TEM-10; details: derivative at 10 μg/mL; EC1009 TEM-10
Method: as §1

[23] = tested on: KX1000 Klebsiella oxytoca OXA-2; details: derivative at 10 μg/mL; KX1000 OXA-2
Method: as §1

[24] = tested on: ec306 Escherichia coli SHV-2; details: derivative at 10 μg/mL; ec306 SHV-2
Method: as §1

[25] = tested on: ec309 Escherichia coli MIR-1; details: derivative at 10 μg/mL; ec309 MIR-1
Method: as §1

[26] = tested on: PAM2035 Pseudomonas aeruginosa ampC mexA:tet; details: derivative at 10 μg/mL
Method: as §1

[27] = tested on: ec307 Escherichia coli SHV-4; details: derivative at 10 μg/mL; ec307 SHV-4
Method: as §1

[28] = tested on: EC1008 Escherichia coli CTX-M3; details: derivative at 10 μg/mL
Method: as §1

[29] = tested on: ec308 Escherichia coli SHV-5; details: derivative at 10 μg/mL; ec308 SHV-5
Method: as §1

[30] = tested on: KP1008 Klebsiella pneumoniae KPC-2; details: derivative at 10 μg/mL; KP1008 KPC-2
Method: as §1

[31] = tested on: ec301 Escherichia coli TEM-6; details: derivative at 10 μg/mL; ec301 TEM-6
Method: as §1

In the case of `O=C(O)CC1CC[C@H](NC(=O)C2CC2)B(O)O1` (stereo partly drawn) [Compound 4, 2-((3R)-3-(cyclopropanecarboxamido)-2-hydroxy-1,2-oxaborinan-6-yl)acetic acid], the “Ceftazidime MIC with cyclic boronic acid ester derivative” value (shortened to “Ceftazidime MIC”) [1] is reported as “Z (MIC of greater than 8 μg/mL)”, the “Ceftazidime MIC” value [2] is reported as “Z (MIC of greater than 8 μg/mL)” and the “Ceftazidime MIC” value [3] is reported as “Z (MIC of greater than 8 μg/mL)”. The “Ceftazidime MIC” value [4] was “Z (MIC of greater than 8 μg/mL)”, the “Ceftazidime MIC” value [5] was “Z (MIC of greater than 8 μg/mL)” and the “Ceftazidime MIC” value [6] was “Z (MIC of greater than 8 μg/mL)”. The “Ceftazidime MIC” value [7] was “Z (MIC of greater than 8 μg/mL)”, the “Ceftazidime MIC” value [8] was “Z (MIC of greater than 8 μg/mL)” and the “Ceftazidime MIC” value [9] was “Y (MIC of greater than 1 μg/mL to 8 μg/mL)”. For the same compound, the “Ceftazidime MIC” value [10] was “Y (MIC of greater than 1 μg/mL to 8 μg/mL)”, the “Ceftazidime MIC” value [11] was “Z (MIC of greater than 8 μg/mL)” and the “Ceftazidime MIC” value [12] was “Z (MIC of greater than 8 μg/mL)”. The “Ceftazidime MIC” value [13] was “Z (MIC of greater than 8 μg/mL)”, the “Ceftazidime MIC” value [14] was “Y (MIC of greater than 1 μg/mL to 8 μg/mL)” and the “Ceftazidime MIC” value [15] was “Z (MIC of greater than 8 μg/mL)”. For the same compound, the “Ceftazidime MIC” value [16] was “Y (MIC of greater than 1 μg/mL to 8 μg/mL)”, the “Ceftazidime MIC” value [17] was “Z (MIC of greater than 8 μg/mL)” and the “Ceftazidime MIC” value [18] was “Y (MIC of greater than 1 μg/mL to 8 μg/mL)”. For the same compound, the “Ceftazidime MIC” value [19] was “Y (MIC of greater than 1 μg/mL to 8 μg/mL)”, the “Ceftazidime MIC” value [20] was “Z (MIC of greater than 8 μg/mL)” and the “Ceftazidime MIC” value [21] was “Z (MIC of greater than 8 μg/mL)”. For the same compound, the “Ceftazidime MIC” value [22] was “Z (MIC of greater than 8 μg/mL)”, the “Ceftazidime MIC” value [23] was “Y (MIC of greater than 1 μg/mL to 8 μg/mL)” and the “Ceftazidime MIC” value [24] was “Z (MIC of greater than 8 μg/mL)”. For the same compound, the “Ceftazidime MIC” value [25] was “Y (MIC of greater than 1 μg/mL to 8 μg/mL)”, the “Ceftazidime MIC” value [26] was “Z (MIC of greater than 8 μg/mL)” and the “Ceftazidime MIC” value [27] was “Z (MIC of greater than 8 μg/mL)”. The “Ceftazidime MIC” value [28] was “Y (MIC of greater than 1 μg/mL to 8 μg/mL)”, the “Ceftazidime MIC” value [29] was “Z (MIC of greater than 8 μg/mL)” and the “Ceftazidime MIC” value [30] was “X (MIC of 1 μg/mL or less)”. For the same compound, the “Ceftazidime MIC” value [31] was “Z (MIC of greater than 8 μg/mL)”.
In the case of `O=C(O)C[C@@H]1CC[C@H](NC(=O)Cc2cccs2)B(O)O1` [Compound 5, 2-((3R,6S)-2-hydroxy-3-(2-(thiophen-2-yl)acetamido)-1,2-oxaborinan-6-yl)acetic acid], the “Ceftazidime MIC” value [1] is reported as “Y (MIC of greater than 1 μg/mL to 8 μg/mL)”, the “Ceftazidime MIC” value [2] is reported as “Z (MIC of greater than 8 μg/mL)” and the “Ceftazidime MIC” value [3] is reported as “Z (MIC of greater than 8 μg/mL)”. The “Ceftazidime MIC” value [4] was “Y (MIC of greater than 1 μg/mL to 8 μg/mL)”, the “Ceftazidime MIC” value [5] was “Z (MIC of greater than 8 μg/mL)” and the “Ceftazidime MIC” value [6] was “Z (MIC of greater than 8 μg/mL)”. The “Ceftazidime MIC” value [7] was “Z (MIC of greater than 8 μg/mL)”, the “Ceftazidime MIC” value [8] was “Y (MIC of greater than 1 μg/mL to 8 μg/mL)” and the “Ceftazidime MIC” value [9] was “Y (MIC of greater than 1 μg/mL to 8 μg/mL)”. The “Ceftazidime MIC” value [10] was “X (MIC of 1 μg/mL or less)”, the “Ceftazidime MIC” value [11] was “Y (MIC of greater than 1 μg/mL to 8 μg/mL)” and the “Ceftazidime MIC” value [12] was “Y (MIC of greater than 1 μg/mL to 8 μg/mL)”. For the same compound, the “Ceftazidime MIC” value [13] was “Y (MIC of greater than 1 μg/mL to 8 μg/mL)”, the “Ceftazidime MIC” value [14] was “Y (MIC of greater than 1 μg/mL to 8 μg/mL)” and the “Ceftazidime MIC” value [15] was “Y (MIC of greater than 1 μg/mL to 8 μg/mL)”. For the same compound, the “Ceftazidime MIC” value [16] was “Y (MIC of greater than 1 μg/mL to 8 μg/mL)”, the “Ceftazidime MIC” value [17] was “Z (MIC of greater than 8 μg/mL)” and the “Ceftazidime MIC” value [18] was “X (MIC of 1 μg/mL or less)”. For the same compound, the “Ceftazidime MIC” value [19] was “Y (MIC of greater than 1 μg/mL to 8 μg/mL)”, the “Ceftazidime MIC” value [20] was “Z (MIC of greater than 8 μg/mL)” and the “Ceftazidime MIC” value [21] was “Y (MIC of greater than 1 μg/mL to 8 μg/mL)”. For the same compound, the “Ceftazidime MIC” value [22] was “Z (MIC of greater than 8 μg/mL)”, the “Ceftazidime MIC” value [23] was “Y (MIC of greater than 1 μg/mL to 8 μg/mL)” and the “Ceftazidime MIC” value [24] was “Z (MIC of greater than 8 μg/mL)”. The “Ceftazidime MIC” value [25] was “X (MIC of 1 μg/mL or less)”, the “Ceftazidime MIC” value [26] was “Y (MIC of greater than 1 μg/mL to 8 μg/mL)” and the “Ceftazidime MIC” value [27] was “Y (MIC of greater than 1 μg/mL to 8 μg/mL)”. The “Ceftazidime MIC” value [28] was “Y (MIC of greater than 1 μg/mL to 8 μg/mL)”, the “Ceftazidime MIC” value [29] was “Z (MIC of greater than 8 μg/mL)” and the “Ceftazidime MIC” value [30] was “X (MIC of 1 μg/mL or less)”. The “Ceftazidime MIC” value [31] was “Z (MIC of greater than 8 μg/mL)”.
